Source: US8722687B2, “Imidazo [1,2-A]pyridine derivatives as FGFR kinase inhibitors for use in therapy” (Astex Therapeutics Ltd, priority 2009, dated 2014)

What was measured:
Ba/F3-TEL-FGFR3 cells = biological target: T1, Ba/F3-TEL-FGFR3 cells (Homo sapiens, UniProt P22607); experiment: Ba/F3-TEL-FGFR3 cell proliferation assay (Alamar Blue); assay type: cell-based, murine; conditions: 72 hours; read-out: BaF3-TEL-FGFR3 prolif
T1 construct: fused on or other part: TEL (ETV6) N-terminal oligomerising part fused to the FGFR3 kinase part; P41212 (Transcription factor ETV6)
T1 sequence (P22607 whole entry, change not shown, the tested form may be a part): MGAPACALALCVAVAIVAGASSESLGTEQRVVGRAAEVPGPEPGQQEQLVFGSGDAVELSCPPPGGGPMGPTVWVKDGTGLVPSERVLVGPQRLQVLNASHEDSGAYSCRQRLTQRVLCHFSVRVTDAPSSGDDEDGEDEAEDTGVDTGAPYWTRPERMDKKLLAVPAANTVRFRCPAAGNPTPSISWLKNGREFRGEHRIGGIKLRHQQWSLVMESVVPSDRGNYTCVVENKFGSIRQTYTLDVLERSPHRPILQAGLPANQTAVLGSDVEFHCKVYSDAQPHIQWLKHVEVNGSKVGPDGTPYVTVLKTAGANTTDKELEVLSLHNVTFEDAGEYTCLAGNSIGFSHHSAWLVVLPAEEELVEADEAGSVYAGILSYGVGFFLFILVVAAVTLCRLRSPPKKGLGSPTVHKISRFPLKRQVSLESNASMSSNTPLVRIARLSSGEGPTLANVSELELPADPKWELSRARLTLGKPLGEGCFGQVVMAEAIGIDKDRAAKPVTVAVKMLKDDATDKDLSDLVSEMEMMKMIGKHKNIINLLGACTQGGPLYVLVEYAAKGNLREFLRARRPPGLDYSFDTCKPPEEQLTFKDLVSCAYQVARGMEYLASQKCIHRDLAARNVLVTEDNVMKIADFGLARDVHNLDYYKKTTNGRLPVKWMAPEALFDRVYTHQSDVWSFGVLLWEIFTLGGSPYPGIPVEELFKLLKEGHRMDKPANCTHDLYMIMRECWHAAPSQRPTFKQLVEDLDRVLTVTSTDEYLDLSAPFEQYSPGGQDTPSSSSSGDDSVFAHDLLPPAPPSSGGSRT
Method: (§1) Ba/F3-TEL-FGFR3 & Ba/F3 (WT) Cell Proliferation Assays
(§2) Stably transfected Ba/F3-TEL-FGFR3 cells were plated out into black 96-well tissue culture plates with clear bottoms in RPMI medium containing 10% FBS and 0.25 mg/ml G418 at a density of 5×10^3 cells/well (200 μl per well). The parental wild-type Ba/F3 cells (DSMZ no.: ACC 300) were plated out into black 96-well tissue culture plates with clear bottoms in RPMI medium containing 10% FBS and 2 ng/ml mouse IL-3 (R&D Systems) at a density of 2.5×10^3 cells/well (200 μl per well). Plates were placed in an incubator overnight before adding the compounds the following day. Dilutions of compounds were made in DMSO starting at 10 mM and were diluted into the wells to give a final DMSO concentration of 0.1% in assay. Compounds were left on the cells for 72 hours before the plates were removed from the incubator and 20 μl of Alamar Blue™ (Biosource) was added to each well. Plates were placed in the incubator for 4-6 hours before reading plates at 535 nm (excitation)/590 nm (emission) on a Fusion plate reader (Packard). Where inhibition is high an IC50 can be determined.

VEGFR2 = biological target: T2, VEGFR2 (Homo sapiens, UniProt P35968); experiment: VEGFR2 in vitro kinase inhibitory activity assay; assay type: biochemical; conditions: read-out: VEGFR2 IC50(μM) or % I
T2 construct: purchased Upstate
T2 sequence (P35968 20-1356): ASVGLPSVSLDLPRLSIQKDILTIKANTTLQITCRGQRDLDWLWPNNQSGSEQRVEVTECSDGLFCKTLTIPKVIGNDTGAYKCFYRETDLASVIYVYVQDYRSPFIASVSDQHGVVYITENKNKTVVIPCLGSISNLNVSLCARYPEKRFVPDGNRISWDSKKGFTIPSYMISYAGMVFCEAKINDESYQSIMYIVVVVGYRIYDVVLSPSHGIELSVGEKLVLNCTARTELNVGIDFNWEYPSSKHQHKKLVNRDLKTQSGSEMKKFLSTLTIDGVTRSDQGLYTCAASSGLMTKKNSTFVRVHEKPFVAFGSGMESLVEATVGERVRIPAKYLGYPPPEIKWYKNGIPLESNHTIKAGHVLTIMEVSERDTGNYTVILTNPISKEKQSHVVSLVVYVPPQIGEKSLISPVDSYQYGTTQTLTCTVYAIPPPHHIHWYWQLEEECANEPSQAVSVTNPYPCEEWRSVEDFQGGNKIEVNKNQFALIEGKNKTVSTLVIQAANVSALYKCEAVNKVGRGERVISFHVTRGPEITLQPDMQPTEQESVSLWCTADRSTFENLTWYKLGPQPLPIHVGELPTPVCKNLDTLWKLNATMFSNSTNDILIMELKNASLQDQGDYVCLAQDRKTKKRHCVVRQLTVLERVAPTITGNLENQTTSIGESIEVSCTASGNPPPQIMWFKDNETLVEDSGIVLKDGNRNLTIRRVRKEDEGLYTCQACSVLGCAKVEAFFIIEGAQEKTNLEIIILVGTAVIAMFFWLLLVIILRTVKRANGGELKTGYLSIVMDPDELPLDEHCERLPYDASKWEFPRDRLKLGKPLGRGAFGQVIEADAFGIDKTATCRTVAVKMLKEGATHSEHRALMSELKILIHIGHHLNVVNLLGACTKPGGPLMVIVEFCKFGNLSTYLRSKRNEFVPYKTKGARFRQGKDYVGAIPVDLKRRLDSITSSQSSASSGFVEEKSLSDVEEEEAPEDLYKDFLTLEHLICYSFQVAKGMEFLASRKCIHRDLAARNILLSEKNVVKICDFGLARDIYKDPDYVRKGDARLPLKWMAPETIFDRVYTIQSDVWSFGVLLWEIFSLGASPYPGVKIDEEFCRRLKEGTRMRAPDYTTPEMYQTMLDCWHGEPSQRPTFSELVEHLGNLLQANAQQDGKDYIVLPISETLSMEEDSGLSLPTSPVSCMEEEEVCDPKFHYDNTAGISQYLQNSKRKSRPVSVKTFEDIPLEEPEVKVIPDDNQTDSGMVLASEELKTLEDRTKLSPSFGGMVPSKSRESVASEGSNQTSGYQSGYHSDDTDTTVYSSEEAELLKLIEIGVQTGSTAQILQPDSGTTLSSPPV
Method: (§3) FGFR3, VEGFR2 and PDGFR in vitro Kinase Inhibitory Activity Assays
(§4) Enzymes (from Upstate), prepared at 2× final concentration, were incubated with test compounds, biotinylated Flt3 substrate (biotin-VASSDNEYFYVDF) (Cell Signalling Technology Inc.) and ATP in the appropriate assay buffer (Table 1). The reaction was allowed to proceed for 3 hours (FGFR3), 1 hour (VEGFR2, PDGFR-beta) at room temperature on a plate shaker at 700 rpm before being stopped with 35 mM EDTA, pH 8 (FGFR3, VEGFR2) or 55 mM EDTA, pH 8 (PDGFR-beta). 5× detection mix/50 mM HEPES pH 7.5, 0.1% BSA, 11.34 nM Eu-anti-pY (PY20) (PerkinElmer) 74 nM SA-XL665 (Cisbio) for FGFR3, 50 mM HEPES, pH 7.5, 0.1% BSA, 11.34 nM Eu-anti-pY (PY20), 187.5 nM SA-XL665 for VEGFR2 and 50 mM HEPES, pH 7.5, 0.1% BSA, 11.34 nM Eu-anti-pY (PT66) (PerkinElmer), 375 nM SA-XL665 (Cisbio) for PDGFR-beta) was then added to each well and the plate sealed and incubated at room temperature for one hour on a plate shaker at 700 rpm. The plate was then read on a Packard Fusion plate reader or a BMG Pherastar both in TRF mode.
Kinase Assay buffers were:
B: 50 mM HEPES pH 7.5, 6 mM MnCl2, 1 mM DTT, 0.01% TritonX-100, 0.1 mM Sodium orthovanadate

FGFR3 = biological target: T3, FGFR3 (Homo sapiens, UniProt P22607); experiment: FGFR3 in vitro kinase inhibitory activity assay; assay type: biochemical; conditions: read-out: FGFR3 IC50(μM) or % I
T3 construct: purchased Upstate
T3 sequence (P22607 23-806): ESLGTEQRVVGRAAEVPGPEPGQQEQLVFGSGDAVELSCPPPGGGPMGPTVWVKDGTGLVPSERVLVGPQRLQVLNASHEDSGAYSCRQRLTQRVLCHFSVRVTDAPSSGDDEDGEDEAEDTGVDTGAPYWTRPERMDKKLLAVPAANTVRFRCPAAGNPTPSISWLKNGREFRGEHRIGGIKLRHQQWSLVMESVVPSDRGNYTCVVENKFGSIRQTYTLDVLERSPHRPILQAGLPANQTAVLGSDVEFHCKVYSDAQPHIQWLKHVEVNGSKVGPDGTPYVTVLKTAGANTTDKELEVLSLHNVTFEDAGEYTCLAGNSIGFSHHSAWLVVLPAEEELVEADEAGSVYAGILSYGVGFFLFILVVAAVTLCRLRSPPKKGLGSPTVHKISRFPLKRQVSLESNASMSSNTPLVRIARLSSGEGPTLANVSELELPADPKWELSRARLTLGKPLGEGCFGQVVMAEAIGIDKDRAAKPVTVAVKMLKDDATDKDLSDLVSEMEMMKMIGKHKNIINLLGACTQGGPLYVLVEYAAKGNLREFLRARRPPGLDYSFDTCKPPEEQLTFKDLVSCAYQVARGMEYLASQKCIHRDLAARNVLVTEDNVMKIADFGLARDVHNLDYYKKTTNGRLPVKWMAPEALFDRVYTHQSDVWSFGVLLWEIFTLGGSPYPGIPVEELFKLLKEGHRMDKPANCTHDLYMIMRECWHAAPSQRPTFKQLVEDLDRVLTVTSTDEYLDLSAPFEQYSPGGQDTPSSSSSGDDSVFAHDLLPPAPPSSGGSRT
Method: as §3, §4

[1] = system: parental wild-type Ba/F3 cells; experiment: Ba/F3 (WT) cell proliferation assay (Alamar Blue); assay type: cell-based, murine; conditions: read-out: BaF3 WT prolif
Method: as §1, §2

[2] = system: human prostate cancer PC3 cells; experiment: EB1 cellular assay (Eb1 Comet assay, microtubule disruption); assay type: cell-based; conditions: PC-3, lowest active concentration: Eb1 foci absent in at least 50% of treated PC3 cells, 1 hour, read-out: Eb1 LAC
Method: The Eb1 Comet assay relies on the detection of the Eb1 protein at the plus end of polymerizing microtubules (Mimori-Kiyosue, 2000) using indirect immunofluorescence. Disruption of microtubule dynamics through de-polymerization or stabilization results in a de-localization of Eb1 from the growing microtubule ends and this is visualized by the disappearance of Eb1 containing cytoplasmic foci.
Briefly, human prostate cancer PC3 cells obtained from the American Type Culture Collection were grown in 96-well plates (Greiner, cat. no. 655090) in HAM's F12 medium as recommended by the provider (ATCC). The cells were treated for 1 hour at 37° C. with compounds dissolved in DMSO (0.6% final DMSO concentration). The culture medium was then removed by aspiration and the cells were fixed by adding cold methanol (−20° C.). After a 15 minutes incubation at −20° C., the cells were washed twice with DPBS (Gibco) containing 0.5% Triton X-100. Mouse Eb1 antibody (BD Transduction Laboratories, cat. no. 610534) was added to the cells (1/250 dilution in DPBS containing 1% BSA) and incubated overnight at room temperature. The antibody was subsequently removed and the cells washed twice with DPBS, 0.5% Triton X-100. Secondary goat anti-mouse antibody conjugated to Alexa 488 fluorescent dye (Molecular Probes) was added at a 1/500 dilution in DPBS, 1% BSA and incubated for 1 hour at 37° C. The cells were washed twice with DPBS, 0.5% Triton X-100 and then DPBS containing 0.5% Triton X-100 and 1/5000 Hoechst 33342 (Molecular Probes) was added. Microscopy based Eb1 foci visualization was carried out using an IN Cell Analyser 1000 (Amersham Biosciences) using a 20× objective. Compound dependent microtubule disruption was visually determined by the disappearance in Eb1 foci. The lowest active concentration (LAC) was determined as the concentration where Eb1 foci were absent in at least 50% of the treated cells. Herein the effects of test compounds are expressed as pLAC (the negative log value of the LAC-value)

Ba/F3-Flt3 cells [3] = experiment: Ba/F3-Flt3 assay (Alamar Blue); assay type: cell-based, murine; conditions: Mus musculus, 24 h; with 10 ng/ml murine IL3; read-out: Ba/F3-flt3 + IL3 pIC50 (converted)
Text: (§5) Ba/F3, a murine interleukin-3 dependent pro-B cell line is increasingly popular as a model system for assessing both the potency and downstream signaling of kinase oncogenes, and the ability of small-molecule kinase inhibitors to block kinase activity. Facilitated by their growth properties. Ba/F3 cells have recently been adapted to high throughput assay formats for compound profiling. Further, several published approaches show promise in predicting resistance to small-molecule kinase inhibitors elicited by point mutations interfering with inhibitor binding (Ba/F3 cells and their use in kinase drug discovery; Markus Warmuth, Sungjoon Kim, Xiang-ju Gu, Gang Xia and Francisco Adria'n; Curr Opin Oncol 19:55-60).
(§6) Ba/F3-Flt3 cells (cultured in phenol red free RPMI-1640, 10% A FCS and 50 μg/ml Gentamycin at 37° C. and 5% 002) were plated at a density of 10000 cells in a total volume of 180 μl medium in a black TC-treated sterile 96-well plate (Corning). After 24 hours, drugs in different dilutions were added to a final volume of 200 μl and at a final DMSO concentration of 0.2% prior to incubation at 37° C., and 5% CO2.
(§7) After 24 h, to each well 40 μl Alamar Blue solution (Aldrich) was added and the cells were further incubated for 4 hours at 37° C. Fluorescence (ex. 544, em. 590 nm) was measured using a fluorescence reader (Labsystems) and IC50's were calculated.
(§8) In the condition containing IL3, 10 ng/ml of murine IL3 (PeproTech) was added during compound incubation.

Ba/F3-Flt3 cells [4] = biological target: T4, Ba/F3-Flt3 cells (Homo sapiens, UniProt P36888, cells depend on it, form not given); experiment: Ba/F3-Flt3 assay (Alamar Blue); assay type: cell-based, murine; conditions: without IL3
T4 construct: Ba/F3-flt3 − IL3 pIC50; other: without IL3
T4 sequence (P36888 1-993): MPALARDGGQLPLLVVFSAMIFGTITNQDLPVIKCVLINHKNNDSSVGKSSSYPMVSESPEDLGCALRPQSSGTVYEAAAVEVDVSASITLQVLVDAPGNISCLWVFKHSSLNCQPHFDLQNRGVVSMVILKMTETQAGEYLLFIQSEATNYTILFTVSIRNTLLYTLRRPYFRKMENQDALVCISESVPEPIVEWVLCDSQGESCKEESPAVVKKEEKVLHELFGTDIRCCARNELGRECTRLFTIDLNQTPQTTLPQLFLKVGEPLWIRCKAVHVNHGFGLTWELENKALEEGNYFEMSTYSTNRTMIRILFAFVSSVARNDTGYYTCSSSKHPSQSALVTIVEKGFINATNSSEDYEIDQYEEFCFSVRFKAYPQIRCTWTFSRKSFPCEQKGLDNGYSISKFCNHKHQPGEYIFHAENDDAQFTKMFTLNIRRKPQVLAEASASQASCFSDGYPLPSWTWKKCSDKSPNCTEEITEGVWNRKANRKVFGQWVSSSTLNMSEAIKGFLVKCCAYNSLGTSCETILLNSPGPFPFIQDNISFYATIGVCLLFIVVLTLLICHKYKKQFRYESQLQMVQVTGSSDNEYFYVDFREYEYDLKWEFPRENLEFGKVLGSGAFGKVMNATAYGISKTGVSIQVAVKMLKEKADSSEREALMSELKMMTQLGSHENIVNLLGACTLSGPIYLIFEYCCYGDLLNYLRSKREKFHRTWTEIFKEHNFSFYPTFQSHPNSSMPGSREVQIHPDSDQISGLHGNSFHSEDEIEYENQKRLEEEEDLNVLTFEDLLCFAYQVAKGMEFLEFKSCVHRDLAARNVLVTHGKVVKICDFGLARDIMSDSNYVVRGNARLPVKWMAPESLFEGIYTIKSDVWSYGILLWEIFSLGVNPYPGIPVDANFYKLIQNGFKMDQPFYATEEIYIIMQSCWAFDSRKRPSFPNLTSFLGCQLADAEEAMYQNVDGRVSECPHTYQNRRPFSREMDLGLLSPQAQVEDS
Text: as §5, §6, §7, §8

Compound: CC(C)Oc1cc(NC(=O)NCC(F)(F)F)cc(-c2cnc3cc(-c4nnco4)ccn23)c1 [Compound F-22, 1-[3-Isopropoxy-5-(7-[1,3,4]oxadiazol-2-yl-imidazo[1,2-a]pyridin-3-yl)-phenyl]-3-(2,2,2-trifluoro-ethyl)-urea]
- GI50 (Ba/F3-TEL-FGFR3 cells): 1300 nM
- IC50 (VEGFR2): 1.1 µM
- IC50 (FGFR3): 0.041 µM
- inhibition at 10 µM ([1]; Mus musculus, BaF3, 72 h, % at 10.0 μM): 19%

Compound: Cc1nnc(-c2ccn3c(-c4cc(NC(=O)NCC(C)C)cc(OC(C)C)c4)cnc3c2)o1 [Compound F-14, 1-Isobutyl-3-{3-isopropoxy-5-[7-(5-methyl-[1,3,4]oxadiazol-2-yl)-imidazo[1,2-a]pyridin-3-yl]-phenyl}-urea]
- IC50 (VEGFR2): 2.6 µM
- IC50 (FGFR3): 0.2 µM

Compound: Cc1nnc(-c2ccn3c(-c4cc(NC(=O)NC(O)C(F)(F)F)cc(OC(C)C)c4)cnc3c2)o1 (stereo not drawn) [Compound F-32, 1-{3-Isopropoxy-5-[7-(5-methyl-[1,3,4]oxadiazol-2-yl)-imidazo[1,2-a]pyridin-3-yl]-phenyl}-3-(2,2,2-trifluoro-1-hydroxyethyl)-urea]
- IC50 (VEGFR2): 1.2 µM
- minimal effective concentration [2]: > 10 µM
- IC50 (Ba/F3-Flt3 cells [3]): > 10000 nM
- Ba/F3-flt3 − IL3 pIC50 (Ba/F3-Flt3 cells [4]): <5

Compound: Cc1nnc(-c2ccn3c(-c4cc(CN(C)C)cc(NC(=O)NCC(F)(F)F)c4)cnc3c2)o1 [Compound F-24, 1-{3-Dimethylaminomethyl-5-[7-(5-methyl-[1,3,4]oxadiazol-2-yl)-imidazo[1,2-a]pyridin-3-yl]-phenyl}-3-(2,2,2-trifluoroethyl)-urea]
- IC50 (VEGFR2): 2.8 µM
- minimal effective concentration [2]: > 10 µM
- IC50 (Ba/F3-Flt3 cells [3]): > 10000 nM
- Ba/F3-flt3 − IL3 pIC50 (Ba/F3-Flt3 cells [4]): <5

Compound: O=C(NCC(F)(F)F)Nc1cc(OC2CCC2)cc(-c2cnc3cc(-c4ccnc(C(F)(F)F)n4)ccn23)c1 [Compound F-12, 1-{3-Cyclobutoxy-5-[7-(2-trifluoromethyl-pyrimidin-4-yl)-imidazo[1,2-a]pyridin-3-yl]-phenyl}-3-(2,2,2-trifluoro-ethyl)-urea]
- IC50 (VEGFR2): 2.2 µM
- minimal effective concentration [2]: > 10 µM
- inhibition at 0.3 µM (FGFR3; 3 h, % I at 0.3 μM): 60%
- IC50 (Ba/F3-Flt3 cells [3]): > 10000 nM
- Ba/F3-flt3 − IL3 pIC50 (Ba/F3-Flt3 cells [4]): <5

Compound: CC(C)Oc1cc(NC(=O)NCC(F)(F)F)cc(-c2cnc3cc(-c4cc(N(C)C)ncn4)ccn23)c1 [Compound F-21, 1-{3-[7-(6-Dimethylamino-pyrimidin-4-yl)-imidazo[1,2-a]pyridin-3-yl]-5-isopropoxy-phenyl}-3-(2,2,2-trifluoro-ethyl)-urea]
- GI50 (Ba/F3-TEL-FGFR3 cells): 240 nM
- IC50 (VEGFR2): 0.79 µM
- IC50 (FGFR3): 0.012 µM
- IC50 ([1]; BaF3, 72 hours, with mouse IL-3): 2300 nM

Compound: Cc1nnc(-c2ccn3c(-c4cc(NC(=O)NCC(F)(F)F)cc(NC(C)C)c4)cnc3c2)o1 [Compound F-30]
- IC50 (VEGFR2): 5.8 µM
- minimal effective concentration [2]: 10 µM
- IC50 (FGFR3): 0.17 µM
- IC50 (Ba/F3-Flt3 cells [3]): > 10000 nM
- Ba/F3-flt3 − IL3 pIC50 (Ba/F3-Flt3 cells [4]): <5

Compound: CNCc1cc(NC(=O)NCC(F)(F)F)cc(-c2cnc3cc(-c4nnc(C)o4)ccn23)c1 [Compound F-25, 1-{3-Methylaminomethyl-5-[7-(5-methyl-[1,3,4]oxadiazol-2-yl)-imidazo[1,2-a]pyridin-3-yl]-phenyl}-3-(2,2,2-trifluoroethyl)-urea]
- IC50 (VEGFR2): 1.7 µM
- minimal effective concentration [2]: > 10 µM
- IC50 (FGFR3): 0.46 µM
- IC50 (Ba/F3-Flt3 cells [3]): > 10000 nM
- Ba/F3-flt3 − IL3 pIC50 (Ba/F3-Flt3 cells [4]): <5
